Laboratory results: DBAASP
Converted amounts (≈) assume the structure as drawn.

Assays:
Experiment in all cases: ≥ marks a high value that may be exact or a test limit, other limits are often not marked, values filed in µg/mL are converted to µM
[1] = system: Bacillus subtilis CGMCC 1.3376
[2] = system: Escherichia coli CGMCC 1.8732
[3] = system: Klebsiella pneumoniae CGMCC 1.1736
[4] = system: Pseudomonas aeruginosa CGMCC 1.2421
[5] = system: Staphylococcus aureus CGMCC 1.8721
[6] = system: Staphylococcus epidermidis CGMCC 1.4260
[7] = system: Candida albicans ATCC 10231
Candida krusei CBS 573 = system: Candida krusei CBS 573
[8] = system: Candida parapsilosis CBS 604
[9] = system: Saccharomyces cerevisiae SZMC 0644
[10] = system: Staphylococcus aureus 5118
[11] = system: Staphylococcus aureus ATCC 9144
[12] = system: Staphylococcus aureus E4049
[13] = system: Acinetobacter baumannii Q12-0809
[14] = system: Acinetobacter baumannii Q12-0867
[15] = system: Acinetobacter baumannii Q13-0717
[16] = system: Campylobacter jejuni NCTC 11351
Campylobacter jejuni = system: Campylobacter jejuni
[17] = system: Enterococcus faecalis JH-2-2
Escherichia coli K-12 = system: Escherichia coli K-12
Escherichia coli = system: Escherichia coli
[18] = system: Klebsiella pneumoniae ATCC 700603
[19] = system: Klebsiella pneumoniae NCTC 13442
[20] = system: Klebsiella pneumoniae Q14-0095
[21] = system: Listeria monocytogenes NCTC 11994
[22] = system: Pseudomonas aeruginosa ATCC 27853
[23] = system: Pseudomonas aeruginosa PAO1
[24] = system: Pseudomonas aeruginosa Q12-0535
[25] = system: Pseudomonas aeruginosa Q12-0581
[26] = system: Pseudomonas aeruginosa Q14-0208
[27] = system: Pseudomonas aeruginosa Q14-0890
[28] = system: Salmonella typhimurium SL1344
[29] = system: Staphylococcus aureus ATCC 29213
[30] = system: Staphylococcus aureus MRSA-15
[31] = system: Staphylococcus aureus NCTC 12493
[32] = system: Staphylococcus aureus Q14-0320
[33] = system: Staphylococcus aureus Q14-0325
[34] = system: Staphylococcus aureus RN4220
[35] = system: Bacillus subtilis KCTC 1998
[36] = system: Candida albicans KCTC 7270
[37] = system: Escherichia coli ATCC 25922
[38] = system: Escherichia coli CCARM 1229
[39] = system: Escherichia coli CCARM 1238
[40] = system: Listeria monocytogenes KCTC 3710
[41] = system: Pseudomonas aeruginosa 4007
[42] = system: Pseudomonas aeruginosa 4891
[43] = system: Salmonella typhimurium KCTC 1926
[44] = system: Staphylococcus aureus ATCC 25923
[45] = system: Staphylococcus aureus CCARM 3090
[46] = system: Staphylococcus aureus CCARM 3518
[47] = system: Trichosporon beigelii KCTC 7707

SMILES: CC[C@H](C)[C@H](NC(=O)[C@H](C)N)C(=O)NCC(=O)N[C@@H](CO)C(=O)N[C@H](C(=O)N[C@@H](CC(C)C)C(=O)NCC(=O)N[C@@H](C)C(=O)N[C@@H](CC(C)C)C(=O)N[C@@H](C)C(=O)N[C@@H](CCCCN)C(=O)NCC(=O)N[C@@H](CC(C)C)C(=O)N1CCC[C@H]1C(=O)N[C@H](C(=O)N[C@@H](CC(C)C)C(=O)N[C@@H](CCCCN)C(=O)N[C@@H](CO)C(=O)N[C@@H](Cc1c[nH]c2ccccc12)C(=O)N[C@H](C(=O)N[C@@H](CCCCN)C(=O)N[C@@H](CC(N)=O)C(=O)N[C@@H](CCCN=C(N)N)C(N)=O)[C@@H](C)CC)[C@@H](C)O)[C@@H](C)CC [AIGSILGALAKGLPTLKSWIKNR]
- MIC [1]: 6.25 µM (≈ 15 µg/mL)
- MIC [2]: 25 µM (≈ 60.2 µg/mL)
- MIC [3]: ≥ 50 µM
- MIC [4]: 25 µM (≈ 60.2 µg/mL)
- MIC [5]: ≥ 50 µM
- MIC [6]: 12.5 µM (≈ 30.1 µg/mL)

SMILES: NCCCC[C@H](NC(=O)CNC(=O)[C@H](CCCCN)NC(=O)[C@H](CC(N)=O)NC(=O)[C@@H]1CSSC[C@H](N)C(=O)N1)C(=O)N[C@@H](CC(N)=O)C(=O)N[C@@H](CCCCN)C(=O)NCC(=O)N[C@@H](CO)C(=O)N[C@@H](Cc1cnc[nH]1)C(=O)O [CCNKGKNKGSH]
- MIC [7]: 42.5 µM (≈ 49.9 µg/mL)
- MIC (Candida krusei CBS 573): ≥ 42.5 µM
- MIC [8]: ≥ 42.5 µM
- MIC [9]: ≥ 42.5 µM

SMILES: CSCC[C@H](NC(=O)[C@H](C)NC(=O)[C@H](C)NC(=O)CNC(=O)[C@H](CCCN=C(N)N)NC(=O)[C@H](CC(=O)O)NC(=O)[C@@H](N)CC(=O)O)C(=O)N[C@@H](Cc1ccccc1)C(=O)N[C@@H](C)C(=O)N[C@H](C(=O)N[C@@H](CC(C)C)C(=O)N[C@@H](Cc1ccccc1)C(=O)N[C@@H](CC(N)=O)C(=O)N[C@@H](C)C(=O)N[C@@H](Cc1ccccc1)C(=O)N[C@@H](CO)C(=O)N[C@@H](CO)C(=O)N[C@@H](CC(C)C)C(=O)N[C@@H](CC(C)C)C(=O)N[C@@H](CCC(=O)O)C(=O)O)C(C)C [DDRGAAMFAVLFNAFSSLLE]
- MIC [10]: 2.3 µM (≈ 5 µg/mL)
- MIC [11]: ≥ 280 µM
- MIC [12]: 7.82 µM (≈ 17 µg/mL)

SMILES: CC[C@H](C)[C@H](NC(=O)[C@H](Cc1ccccc1)NC(=O)[C@H](Cc1ccc(O)cc1)NC(=O)[C@@H](NC(=O)[C@H](CCCCN)NC(=O)[C@H](CC(C)C)NC(=O)[C@@H](NC(=O)[C@H](CCCCN)NC(=O)[C@@H](NC(=O)[C@@H](N)CO)[C@@H](C)CC)[C@@H](C)CC)[C@@H](C)CC)C(=O)N[C@@H](CCC(N)=O)C(=O)NCC(=O)N[C@@H](CCCCN)C(=O)N[C@@H](CCCN=C(N)N)C(=O)N[C@@H](Cc1cnc[nH]1)C(=O)N[C@@H](Cc1c[nH]c2ccccc12)C(=O)N[C@@H](CO)C(=O)N[C@@H](Cc1ccccc1)C(=O)O [SIKILKIYFIQGKRHWSF]
- MIC [13]: ≥ 56.5 µM
- MIC [14]: 14.1 µM (≈ 32 µg/mL)
- MIC [15]: 28.3 µM (≈ 64 µg/mL)
- MIC [16]: ≥ 56.5 µM
- MIC (Campylobacter jejuni): ≥ 56.5 µM
- MIC [17]: ≥ 113 µM
- MIC (Escherichia coli K-12): ≥ 113 µM
- MIC (Escherichia coli): > 56.5 µM
- MIC [18]: 56.5 µM (≈ 128 µg/mL)
- MIC [19]: ≥ 56.5 µM
- MIC [20]: ≥ 56.5 µM
- MIC [21]: ≥ 113 µM
- MIC [22]: > 56.5 µM
- MIC [23]: 226 µM (≈ 512 µg/mL)
- MIC [24]: ≥ 56.5 µM
- MIC [25]: 14.1 µM (≈ 32 µg/mL)
- MIC [26]: 28.3 µM (≈ 64 µg/mL)
- MIC [27]: 7.06 µM (≈ 16 µg/mL)
- MIC [28]: ≥ 226 µM
- MIC [29]: 14.1 µM (≈ 32 µg/mL)
- MIC [30]: ≥ 110 µM
- MIC [31]: 14.1 µM (≈ 32 µg/mL)
- MIC [32]: 28.3 µM (≈ 64 µg/mL)
- MIC [33]: 14.1 µM (≈ 32 µg/mL)
- MIC [34]: ≥ 113 µM

SMILES: CC[C@H](C)[C@H](NC(=O)CNC(=O)[C@H](CCC(N)=O)NC(=O)[C@H](Cc1ccccc1)NC(=O)[C@@H](NC(=O)[C@H](CCCCN)NC(=O)[C@H](CCCCN)NC(=O)[C@H](CC(C)C)NC(=O)[C@H](C)NC(=O)[C@H](CC(N)=O)NC(=O)[C@H](CC(C)C)NC(=O)[C@@H](N)Cc1c[nH]c2ccccc12)C(C)C)C(=O)N[C@@H](Cc1cnc[nH]1)C(=O)N[C@@H](CCC(=O)O)C(=O)N[C@@H](C)C(=O)N[C@H](C(=O)N[C@@H](CCCCN)C(=O)N[C@@H](CC(C)C)C(=O)N[C@H](C(=O)N[C@@H](Cc1c[nH]c2ccccc12)C(=O)N[C@@H](CC(N)=O)C(=O)N[C@@H](Cc1cnc[nH]1)C(=O)N[C@H](C(=O)N[C@@H](CCC(N)=O)C(N)=O)C(C)C)[C@@H](C)CC)[C@@H](C)CC [WLNALKKVFQGIHEAIKLIWNHVQ]
- MIC [35]: 4 µM (≈ 11.5 µg/mL)
- MIC [36]: ≥ 32 µM
- MIC [37]: 2 µM (≈ 5.77 µg/mL)
- MIC [38]: 2 µM (≈ 5.77 µg/mL)
- MIC [39]: 2 µM (≈ 5.77 µg/mL)
- MIC [40]: 8 µM (≈ 23.1 µg/mL)
- MIC [41]: 2 µM (≈ 5.77 µg/mL)
- MIC [42]: 4 µM (≈ 11.5 µg/mL)
- MIC [22]: 2 µM (≈ 5.77 µg/mL)
- MIC [43]: 2 µM (≈ 5.77 µg/mL)
- MIC [44]: 4 µM (≈ 11.5 µg/mL)
- MIC [45]: 4 µM (≈ 11.5 µg/mL)
- MIC [46]: 4 µM (≈ 11.5 µg/mL)
- MIC [47]: ≥ 32 µM
